Earlier results, collected in patent US20200206223A1, “LIQUID DOSAGE FORMS OF IMATINIB” (FTF PHARMA PRIVATE LIMITED, priority 2017, published 2020).

Share of the AUC for Imatinib mesylate (main circulating active metabolite): about 15% | Elimination half-life (orally administered imatinib mesylate): ~40 h
Structure (SMILES): Cc1ccc(NC(=O)c2ccc(CN3CCNCC3)cc2)cc1Nc1nccc(-c2cccnc2)n1 [N-desmethyl derivative]
